Data reported in PMC7915185 (Molecules, 2021).

Key:
[1] = target: T1, H1N1 (A/WSN/1933) hemagglutinin (HA) protein (Influenza A virus, UniProt P03454); assay: biochemical; format: binding, influenza virus H1N1 (A/WSN/1933)
T1 construct: purchased Sino Biological Inc. (Beijing, China)

[2] = target: H5N1 (A/Hong Kong/483/97) hemagglutinin (HA) protein (Influenza A virus, UniProt Q77XR4); format: binding, influenza virus H5N1 (A/Hong Kong/483/97); conditions: pH 7.4
HA = conditions: in our previous work; cited from earlier work

Compound	Kd [1] [µM]	thermodynamic dissociation constant KD [2]	thermodynamic dissociation constant KD ([1]; pH 7.4)	affinity to HA (SPR) (HA)
CC(=O)N[C@@H]1[C@@H](O)[C@H](O[C@@H]2O[C@H](CO)[C@@H](O[C@@H]3O[C@H](CO[C@H]4O[C@H](CO)[C@@H](O)[C@H](O)[C@@H]4O[C@@H]4O[C@H](CO)[C@@H](O[C@@H]5O[C@H](CO[C@]6(C(=O)O)C[C@H](O)[C@@H](NC(C)=O)[C@H]([C@H](O)[C@H](O)CO)O6)[C@H](O)[C@H](O)[C@H]5O)[C@H](O)[C@H]4NC(C)=O)[C@@H](O)[C@H](O[C@H]4O[C@H](CO)[C@@H](O)[C@H](O)[C@@H]4O[C@@H]4O[C@H](CO)[C@@H](O[C@@H]5O[C@H](CO[C@]6(C(=O)O)C[C@H](O)[C@@H](NC(C)=O)[C@H]([C@H](O)[C@H](O)CO)O6)[C@H](O)[C@H](O)[C@H]5O)[C@H](O)[C@H]4NC(C)=O)[C@@H]3O)[C@H](O)[C@H]2NC(C)=O)[C@@H](CO)O[C@H]1NC(=O)C[C@H](NC(=O)CCc1cn(CCOCCOCCOCCOCCOCCOC(=O)[C@@]2(C)CC[C@]3(C)CC[C@]4(C)C(=CC(=O)[C@@H]5[C@@]6(C)CC[C@H](O)C(C)(C)[C@@H]6CC[C@]54C)[C@@H]3C2)nn1)C(=O)O [SCT-Asn-GA]	16.4			
CC1(C)CC[C@]2(C(=O)O)CC[C@]3(C)C(=CC[C@@H]4[C@@]5(C)CC[C@H](O)C(C)(C)[C@@H]5CC[C@]43C)[C@@H]2C1 [OA, oleanolic acid]	31.1			
C[C@H]1[C@H](C)CC[C@]2(C(=O)O)CC[C@]3(C)C(=CC[C@@H]4[C@@]5(C)CC[C@H](O)C(C)(C)[C@@H]5CC[C@]43C)[C@H]12 [UA, ursolic acid]	137	no significant affinity		
C=C(C)[C@@H]1CC[C@]2(C(=O)O)CC[C@]3(C)[C@H](CC[C@@H]4[C@@]5(C)CC[C@H](O)C(C)(C)[C@@H]5CC[C@]43C)[C@@H]12 [BA, betulinic acid]		no significant affinity	no affinity	
CC(=O)N[C@@H]1[C@@H](O)[C@H](O[C@@H]2O[C@H](CO)[C@@H](O[C@@H]3O[C@H](CO[C@H]4O[C@H](CO)[C@@H](O)[C@H](O)[C@@H]4O[C@@H]4O[C@H](CO)[C@@H](O[C@@H]5O[C@H](CO[C@]6(C(=O)O)C[C@H](O)[C@@H](NC(C)=O)[C@H]([C@H](O)[C@H](O)CO)O6)[C@H](O)[C@H](O)[C@H]5O)[C@H](O)[C@H]4NC(C)=O)[C@@H](O)[C@H](O[C@H]4O[C@H](CO)[C@@H](O)[C@H](O)[C@@H]4O[C@@H]4O[C@H](CO)[C@@H](O[C@@H]5O[C@H](CO[C@]6(C(=O)O)C[C@H](O)[C@@H](NC(C)=O)[C@H]([C@H](O)[C@H](O)CO)O6)[C@H](O)[C@H](O)[C@H]5O)[C@H](O)[C@H]4NC(C)=O)[C@@H]3O)[C@H](O)[C@H]2NC(C)=O)[C@@H](CO)O[C@H]1NC(=O)C[C@H](NC(=O)CCc1cn(CCOCCOCCOCCOCCOCCOC(=O)[C@]23CC[C@@H](C)[C@H](C)[C@H]2C2=CC[C@@H]4[C@@]5(C)CC[C@H](O)C(C)(C)[C@@H]5CC[C@@]4(C)[C@]2(C)CC3)nn1)C(=O)O [SCT-Asn-UA]	289			
C=C(C)[C@@H]1CC[C@]2(C(=O)OCCOCCOCCOCCOCCOCCn3cc(CCC(=O)N[C@@H](CC(=O)N[C@@H]4O[C@H](CO)[C@@H](O[C@@H]5O[C@H](CO)[C@@H](O[C@@H]6O[C@H](CO[C@H]7O[C@H](CO)[C@@H](O)[C@H](O)[C@@H]7O[C@@H]7O[C@H](CO)[C@@H](O[C@@H]8O[C@H](CO[C@]9(C(=O)O)C[C@H](O)[C@@H](NC(C)=O)[C@H]([C@H](O)[C@H](O)CO)O9)[C@H](O)[C@H](O)[C@H]8O)[C@H](O)[C@H]7NC(C)=O)[C@@H](O)[C@H](O[C@H]7O[C@H](CO)[C@@H](O)[C@H](O)[C@@H]7O[C@@H]7O[C@H](CO)[C@@H](O[C@@H]8O[C@H](CO[C@]9(C(=O)O)C[C@H](O)[C@@H](NC(C)=O)[C@H]([C@H](O)[C@H](O)CO)O9)[C@H](O)[C@H](O)[C@H]8O)[C@H](O)[C@H]7NC(C)=O)[C@@H]6O)[C@H](O)[C@H]5NC(C)=O)[C@H](O)[C@H]4NC(C)=O)C(=O)O)nn3)CC[C@]3(C)[C@H](CC[C@@H]4[C@@]5(C)CC[C@H](O)C(C)(C)[C@@H]5CC[C@]43C)[C@@H]12 [SCT-Asn-BA]	6.89			
CC1(C)[C@@H](O)CC[C@]2(C)[C@H]3C(=O)C=C4[C@@H]5C[C@@](C)(C(=O)O)CC[C@]5(C)CC[C@@]4(C)[C@]3(C)CC[C@@H]12 [GA, glycyrrhetinic acid]	584	no significant affinity		
Sialylglycopeptide [SGP]		no affinity		no affinity
CC(=O)N[C@@H]1[C@@H](O)[C@H](O[C@@H]2O[C@H](CO)[C@@H](O[C@@H]3O[C@H](CO[C@H]4O[C@H](CO)[C@@H](O)[C@H](O)[C@@H]4O[C@@H]4O[C@H](CO)[C@@H](O[C@@H]5O[C@H](CO[C@]6(C(=O)O)C[C@H](O)[C@@H](NC(C)=O)[C@H]([C@H](O)[C@H](O)CO)O6)[C@H](O)[C@H](O)[C@H]5O)[C@H](O)[C@H]4NC(C)=O)[C@@H](O)[C@H](O[C@H]4O[C@H](CO)[C@@H](O)[C@H](O)[C@@H]4O[C@@H]4O[C@H](CO)[C@@H](O[C@@H]5O[C@H](CO[C@]6(C(=O)O)C[C@H](O)[C@@H](NC(C)=O)[C@H]([C@H](O)[C@H](O)CO)O6)[C@H](O)[C@H](O)[C@H]5O)[C@H](O)[C@H]4NC(C)=O)[C@@H]3O)[C@H](O)[C@H]2NC(C)=O)[C@@H](CO)O[C@H]1NC(=O)C[C@H](NC(=O)CCc1cn(CCOCCOCCOCCOCCOCCOC(=O)[C@]23CCC(C)(C)C[C@H]2C2=CC[C@@H]4[C@@]5(C)CC[C@H](O)C(C)(C)[C@@H]5CC[C@@]4(C)[C@]2(C)CC3)nn1)C(=O)O [SCT-Asn-OA]	11.2			
